Some test systems named below: ACHN renal; DU-145 prostate; SF-295 CNS; MDA-MB-231 breast; OVCAR-5 ovarian; SK-MEL-5 melanoma; COLO 205 colon; K-562 leukemia; HOP-62 NSCLC; KM12 colon; HT29 colon; SNB-75 CNS; HCT-116 colon; HCT-15 colon.
What all share (assay): NCI-60 cell line screen, 48 h

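Five compound concentrations were applied to cells in 96-well plates for 48 hours; endpoints were derived by simple linear interpolation of the resulting dose-response curve. TGI is the concentration that stops growth completely.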 Where a SMILES comes first, the peptide text is derived from it. The star is where a group is joined. Boc = CC(C)(C)OC(=O)*; nBu = CCCC* A value given as a limit tells only on which side of the number the result lay.

As to `Nc1nc(SCC(=O)c2ccc(Br)cc2)c2[nH]cnc2n1`, the TGI in the assay on ACHN renal is above 100 µM; in the assay on DU-145 prostate, above 100 µM; in the assay with SF-295 CNS, above 100 µM; in the assay with MDA-MB-231 breast it was above 100 µM; in the assay on OVCAR-5 ovarian, above 100 µM; in the assay with SK-MEL-5 melanoma it was 60.3 µM. For the same compound, the TGI in the assay on COLO 205 colon was 46.8 µM; in the assay with K-562 leukemia it was above 100 µM; with HOP-62 NSCLC it was above 100 µM; in the assay with KM12 colon it was above 100 µM; with HT29 colon it was above 100 µM; in the assay on SNB-75 CNS, 73 µM. Moreover, the TGI in the assay with HCT-116 colon and in the assay with HCT-15 colon was above 100 µM each time.

For the compound `CCOc1nc2c(N3CCCC3)nc(N3CCNCC3)nc2nc1NCc1ccccc1`, the TGI came out at 4.55 µM in the assay with ACHN renal; 6.84 µM with DU-145 prostate; 3.37 µM in the assay on SF-295 CNS; 2.84 µM with MDA-MB-231 breast; 16.3 µM with OVCAR-5 ovarian; 2.71 µM in the assay on SK-MEL-5 melanoma. The TGI with COLO 205 colon worked out at 1.93 µM; in the assay on K-562 leukemia, 2.61 µM; in the assay on HOP-62 NSCLC, 2.33 µM; with KM12 colon, 3.08 µM; in the assay on HT29 colon, 2.6 µM; with SNB-75 CNS, 2.46 µM. Further, the TGI came out at 2.14 µM in the assay on HCT-116 colon and 3.45 µM in the assay with HCT-15 colon.

With `CCCCOc1ccc(CC(NC(=O)OC(C)(C)C)C(=O)NC(C)C(=O)NC(Cc2ccccc2)C(=O)NCC(N)=O)cc1` (stereo not drawn) (Boc-Y(nBu)AFG-NH2; configuration not given here), the TGI in the assay on ACHN renal, in the assay on DU-145 prostate, in the assay with SF-295 CNS, in the assay on MDA-MB-231 breast, in the assay on OVCAR-5 ovarian and in the assay with SK-MEL-5 melanoma was above 100 µM in each case. Besides, the TGI in the assay with COLO 205 colon, with K-562 leukemia, with HOP-62 NSCLC, in the assay on KM12 colon, with HT29 colon and with SNB-75 CNS was above 100 µM each time. Besides, the TGI in the assay with HCT-116 colon and in the assay with HCT-15 colon was above 100 µM in each case.

With `COc1ccc2nc3ccc(OC)cc3c(SCCCl)c2c1`, the TGI in the assay on ACHN renal is above 100 µM; with DU-145 prostate it was above 65 µM; in the assay on SF-295 CNS, above 100 µM; in the assay with MDA-MB-231 breast, 99.3 µM; in the assay with OVCAR-5 ovarian it was above 40.8 µM; with SK-MEL-5 melanoma, above 100 µM. Besides, the TGI in the assay with COLO 205 colon was above 72.3 µM; in the assay with K-562 leukemia it was above 46.5 µM; with HOP-62 NSCLC it was above 78.3 µM; in the assay on KM12 colon it was above 71 µM; in the assay with HT29 colon, above 52.4 µM; with SNB-75 CNS, above 96.8 µM. In addition, the TGI in the assay on HCT-116 colon was above 43.5 µM; in the assay on HCT-15 colon, above 100 µM.

Turning to `CC(Oc1ccccc1Cl)C(=O)NN1C(=O)CC(=O)N(c2ccc(Cl)cc2)C1=S` (stereo not drawn), the TGI in the assay with ACHN renal, in the assay on DU-145 prostate, in the assay with SF-295 CNS, in the assay on MDA-MB-231 breast, in the assay on OVCAR-5 ovarian and in the assay on SK-MEL-5 melanoma was above 100 µM each time. The TGI in the assay on COLO 205 colon, in the assay with K-562 leukemia, with HOP-62 NSCLC, in the assay with KM12 colon, in the assay on HT29 colon and with SNB-75 CNS was above 100 µM throughout. The TGI in the assay with HCT-116 colon and in the assay on HCT-15 colon was above 100 µM each time.

With `CC1=NN(c2nc(N)nc(/C(C#N)=C\c3ccc(-c4ccc([N+](=O)[O-])cc4)o3)n2)C(C)(C)C1`, the TGI in the assay on ACHN renal, in the assay with DU-145 prostate, in the assay with SF-295 CNS, in the assay on MDA-MB-231 breast, in the assay with OVCAR-5 ovarian and with SK-MEL-5 melanoma was above 100 µM throughout. Moreover, the TGI in the assay on COLO 205 colon was above 100 µM; with K-562 leukemia, above 100 µM; in the assay on HOP-62 NSCLC, 67.5 µM; with KM12 colon, above 100 µM; in the assay with HT29 colon it was above 100 µM; in the assay with SNB-75 CNS it was 51.6 µM. Moreover, the TGI with HCT-116 colon and in the assay with HCT-15 colon was above 100 µM in each case.

On to `O=[N+]([O-])c1ccc(N=Nc2c(O)[nH]c3ccccc23)c([N+](=O)[O-])c1`, for which the TGI in the assay with ACHN renal was 19.2 µM; with DU-145 prostate, 30.1 µM; with SF-295 CNS it was 25.1 µM; with MDA-MB-231 breast, 29.9 µM; in the assay on OVCAR-5 ovarian, 50.2 µM; in the assay on SK-MEL-5 melanoma, above 100 µM. Besides, the TGI is 71.2 µM with COLO 205 colon; above 100 µM with K-562 leukemia; 24.2 µM in the assay with HOP-62 NSCLC; above 100 µM in the assay with KM12 colon; 81.7 µM in the assay with HT29 colon; 72.3 µM in the assay with SNB-75 CNS. Besides, the values for the TGI with HCT-116 colon and with HCT-15 colon were 49.7 µM and 57.9 µM, respectively.

Consider `O=C1c2c(Br)sc(Br)c2[C@@H](O)[C@H]1O`, for which the TGI in the assay on ACHN renal was 33.5 µM; in the assay with DU-145 prostate, 30.7 µM; with SF-295 CNS it was 35.1 µM; in the assay with MDA-MB-231 breast, 31.4 µM; in the assay on OVCAR-5 ovarian it was 36.6 µM; in the assay on SK-MEL-5 melanoma, 32.4 µM. In addition, the TGI with COLO 205 colon is 28.5 µM; in the assay with K-562 leukemia, above 36.8 µM; in the assay with HOP-62 NSCLC, 30.6 µM; in the assay with KM12 colon, 45.1 µM; in the assay with HT29 colon it was 40.4 µM; in the assay with SNB-75 CNS it was 31.6 µM. In addition, the TGI came to 32.4 µM with HCT-116 colon and 30.1 µM with HCT-15 colon.

For `CN(CCc1ccccn1)c1ccc2c(c1)C(=O)c1ccccc1-2`, the TGI with ACHN renal is above 100 µM; in the assay with DU-145 prostate it was above 100 µM; with SF-295 CNS it was above 100 µM; in the assay on MDA-MB-231 breast it was above 100 µM; in the assay on OVCAR-5 ovarian it was above 100 µM; in the assay with SK-MEL-5 melanoma, 98.3 µM. In addition, the TGI in the assay with COLO 205 colon, in the assay on K-562 leukemia, in the assay with HOP-62 NSCLC, in the assay on KM12 colon, in the assay on HT29 colon and in the assay with SNB-75 CNS was above 100 µM each time. Moreover, the TGI in the assay with HCT-116 colon and with HCT-15 colon was above 100 µM throughout.

For the compound `COc1ccc(N2C(=O)C(=O)C3(CCCCC3)C2=O)c2ccccc12`, the TGI in the assay with ACHN renal, with DU-145 prostate, with SF-295 CNS, in the assay with MDA-MB-231 breast, in the assay on OVCAR-5 ovarian and in the assay with SK-MEL-5 melanoma was above 10 µM in each case. Moreover, the TGI with COLO 205 colon, in the assay with K-562 leukemia, in the assay with HOP-62 NSCLC, with KM12 colon, in the assay with HT29 colon and with SNB-75 CNS was above 10 µM in each case. The TGI in the assay with HCT-116 colon and in the assay on HCT-15 colon was above 10 µM throughout.

Turning to `COC(=O)c1c(O)ccc2c1c1c(n2Cc2cc(OC)cc(OC)c2)C(=O)c2ccccc2C1=O`, the TGI in the assay with ACHN renal was 56.1 µM; in the assay with DU-145 prostate, 71.9 µM; with SF-295 CNS it was 32.7 µM; in the assay on MDA-MB-231 breast it was 35.7 µM; with OVCAR-5 ovarian, 55.9 µM; in the assay on SK-MEL-5 melanoma it was 26.7 µM. In addition, the TGI in the assay on COLO 205 colon is 3.28 µM; in the assay with K-562 leukemia, above 100 µM; with HOP-62 NSCLC, 23 µM; in the assay on KM12 colon it was 13.6 µM; with HT29 colon it was 5.42 µM; in the assay on SNB-75 CNS, 58.7 µM. Further, the TGI with HCT-116 colon came to 15.1 µM; with HCT-15 colon, 21.1 µM.

As for `CN1CCC(C(O)(c2ccccc2)c2ccc(Br)cc2)CC1` (stereo not drawn), the TGI in the assay on ACHN renal is above 100 µM; in the assay on DU-145 prostate it was above 100 µM; with SF-295 CNS, 45.7 µM; in the assay on MDA-MB-231 breast, 48.8 µM; in the assay on OVCAR-5 ovarian, 93.3 µM; with SK-MEL-5 melanoma, 27.9 µM. Also, the TGI was 28.7 µM in the assay on COLO 205 colon; 35.9 µM in the assay on K-562 leukemia; 83.8 µM with HOP-62 NSCLC; 43.2 µM in the assay on KM12 colon; 51.9 µM in the assay on HT29 colon; 91.5 µM with SNB-75 CNS. In addition, the TGI in the assay with HCT-116 colon was 51.1 µM; in the assay with HCT-15 colon, above 100 µM.

(Values after PubChem BioAssay (NCI).)
